Laboratory results reported in EP4316482A1, “LEVODOPA FOR PREVENTING ADDICTION” (4P-Pharma, priority 2022, dated 2024).

How the values were obtained:
Format in all cases: in vivo
[1] = tested on: C57B1/6J mice; assay: Observation of mice activity: methylphenidate-induced hyperactivity (Example 1); settings: male mice, IP, methylphenidate 10 mg/kg, levodopa 17 mg/kg, 5 minutes session 15 minutes after treatment, Mean ± SEM, n=6; for horizontal activity: line crossings; for vertical activity: rearing or climbing
Protocol: • Species / Strain: Mice / C57B1/6J • Gender / Number / Age: Male / 24 / 8 weeks at study initiation • Source: Janvier Labs, France
The Test items and vehicle were administered via intraperitoneal injections according to Table 2. Table 2 - Study design
(§1) Mice were subj ected to a behavioral test to evaluate their activity 15 minutes after treatment administration (5 minutes session). Mice were acclimated to the surrounding for 15 minutes before the beginning of the test. At the appropriate time after treatment administration, mice (1 per cage) were placed in the middle of a polyethylene cage measuring 17 × 32 × 14 cm without stainless steel top grill (no access to food or drinking water), without bedding and with a line drawn at the bottom of the cage. Activity was then monitored during 5 minutes session at 15 minutes after treatment administration, measuring different parameters: • Horizontal activity: the number of times the mice crossed the line drawn at the bottom of the cage during the session was recorded to assess horizontal activity levels. • Vertical activity: the number of rearing or climbing was recorded to assess vertical activity levels.

[2] = tested on: C57B1/6J mice; assay: Observation of mice activity: methylphenidate-induced hyperactivity, levodopa/carbidopa (Example 2); settings: male mice, IP, methylphenidate 20 mg/kg, levodopa (carbidopa) 17(1,7) mg/kg, 5 minutes session 15 minutes after treatment, Mean ± SEM, n=6
Protocol: • Species / Strain: Mice / C57B1/6J • Gender / Number / Age: Male / 24 / 9 weeks at study initiation • Source: Janvier Labs, France
The Test items and vehicle were administered via intraperitoneal injections according to Table 3. Table 3 - Study design
as §1

[3] = tested on: C57B1/6J mice; assay: Hyperactivity and behavioral sensitization induced by methylphenidate: distance travelled in drug sessions (Example 3); settings: male mice, IP; methylphenidate 3 mg/kg, levodopa (carbidopa) 8,5(0,85) or 17(1,7) mg/kg; four 30 minutes drug sessions; n=9
Protocol: • Species / Strain: Mice / C57B1/6J • Gender / Number / Age: Male / 36 / 6-8 weeks at study initiation • Source: Janvier Labs, France
The Test items and vehicle were administered via intraperitoneal injections according to Table 4. Table 4 - Study design
Mice were subj ected to a behavioral test to evaluate their activity 30 minutes after treatment administration. Mice received an administration of vehicle and were placed in the apparatus (20 cm wide, 40 cm large, 40 cm high) for the habituation session (30 minutes). After, 4 drug sessions were performed on days 2, 4, 8 and 10 or on days 3, 5, 9 and 11. Mice were injected with one of the tested drugs (or vehicle) immediately before being placed in the box. Mice activity was then monitored during 30 minutes session after treatment administration, measuring: distance travelled in the compartment in the four sessions.

[4] = tested on: C57B1/6J mice; assay: Behavioral sensitization test for methylphenidate addiction/dependence (Example 4); settings: methylphenidate 10 mg/kg, Mean ± SEM; for locomotor activity (total distance travelled) / horizontal activity: female and male mice, IP, levodopa/carbidopa 17/1.7 mg/kg; for locomotor activity (total distance travelled): 20 minutes session; for horizontal activity: line crossings
Protocol: • Species / Strain: Mice / C57B1/6J • Gender / Number / Age: Male / 30 / 9 weeks at study initiation and Female / 35 / 9 weeks at study initiation • Source: Janvier Labs, France
The Test items and vehicle were administered via intraperitoneal injections according to Table 5. Table 5 - Study design
Mice were subjected to a behavioral test to evaluate their activity after treatment or vehicle administration. Mice (1 per cage) were placed in the center of a polyethylene cage without stainless steel top grill (no access to food or drinking water), without bedding and with a line drawn at the bottom of the cage. First, mice were acclimated to the surrounding and video-recorded for 10 minutes before the beginning of the test to analyse the baseline motor activity (total distance travelled). Second, mice were injected with test item or vehicle and acclimated for another 5 minutes and activity was again monitored and video recorded during a 20 minutes session. The 10 minutes video containing basal activity and the 20 minutes video after treatment administration were analysed using the ezTracker-master software. Horizontal activity was also measured. It represents the number of times the mice crossed the line drawn at the bottom of the cage. Animals are submitted to 6 sessions (3 sessions/week on Monday, Wednesday and Friday). During session 1, all mice receive an administration of vehicle. During sessions 2-5, groups 1F/1M receive an injection of vehicle; groups 2F/2M receive methylphenidate injection, groups 3F/3M receive levodopa/carbidopa injection and groups 4F/4M receive levodopa/carbidopa and methylphenidate injections. And during session 6, all mice receive an administration of methylphenidate.

[5] = day 3, development of behavioral sensitization
[6] = day 10, development of behavioral sensitization

Row | SMILES | horizontal activity [1] [counts] | vertical activity [1] [counts] | horizontal activity ([2]; line crossings) [counts] | vertical activity ([2]; rearing or climbing) [counts] | distance travelled during drug sessions [3] | locomotor activity (total distance travelled) [4, 5] | horizontal activity [4, 5] | locomotor activity (total distance travelled) [4, 6] | horizontal activity [4, 6] | locomotor activity before treatment administration (baseline motor activity) ([4]; experimental day 12, 10 minutes baseline session before injection, after chronic treatment, levodopa/carbidopa 17/1.7 mg/kg IP)
1 | N[C@@H](Cc1ccc(O)c(O)c1)C(=O)O [levodopa, L-3,4-dihydroxyphenylalanine] | 17±4 | 24±7 |  |  |  |  |  |  |  | 
2 | COC(=O)C(c1ccccc1)C1CCCCN1 (stereo not drawn) [methylphenidate, Methylphenidate] | 49±11 | 42±16 | 62±24 | 59±10 | increased the distance travelled during drug sessions compared to vehicle-treated group | 127,39±38,76 meters | 259,69±115,51 counts | 185,70±41,44 meters | 420,38±137,05 counts | 28,35±7,43 meters
